Data taken from patent publication US20220308043A1, “FLUORESCENT PROBES FOR IDENTIFICATION AND QUANTIFICATION OF HEPATIC TRANSPORTERS IN VITRO AND IN VIVO” (Université d'Orléans, priority 2021, published 2022).
“Also recorded” adds a separate entry of the source. Like-named read-outs stand apart in the source and are kept apart here.

Experiments:
BC = conditions: cited from earlier work
[1] = tested on: bile canaliculi (BC) of HEPARG® cells; assay: Bile canaliculi alterations evaluation for cholestasis-DILI prediction in HEPARG® cells; type: cell-based, human; conditions: for alteration of bile canaliculi (BC) revealed by fluorescent probe 15: HEPARG® cells, probe 15, versus control cells incubated only with 15, FIG. 9
Description: To investigate the application of fluorescent probes for predicting drug-induced cholestasis, cholestatic effects of six reference cholestatic drugs are evaluated by using two protocols.

Efflux transporters = conditions: cited from earlier work
OATs [2] = assay: Uptake evaluation, Test group 2: probe uptake in PHH with Indomethacine/Diclofenac (OATs inhibitor); conditions: PHH pre-incubated 20 minutes with inhibitor, probe 5 μM, 30 minutes at 37° C.
OATPs = conditions: PHH pre-incubated 20 minutes with inhibitor, probe 5 μM, 30 minutes at 37° C.
OCT = assay: Uptake evaluation, Test group 2: probe uptake in PHH with Mpp (OCT inhibitor); type: in vitro ADME, human; conditions: PHH pre-incubated 20 minutes with inhibitor, probe 5 μM, 30 minutes at 37° C.
NTCP = target: T1, NTCP (Homo sapiens, UniProt Q14973); assay: Uptake evaluation, Test group 2: probe uptake in PHH with Myrcludex (NTCP inhibitor); type: in vitro ADME; conditions: PHH pre-incubated 20 minutes with inhibitor, probe 5 μM, 30 minutes at 37° C.
T1 construct: Cryopreserved PHH are thawed in one-step Hepatocyte Thawing/Plating medium; endogenous in cells; host or cells: cryopreserved primary human hepatocytes (PHH)
T1 sequence (Q14973 1-349): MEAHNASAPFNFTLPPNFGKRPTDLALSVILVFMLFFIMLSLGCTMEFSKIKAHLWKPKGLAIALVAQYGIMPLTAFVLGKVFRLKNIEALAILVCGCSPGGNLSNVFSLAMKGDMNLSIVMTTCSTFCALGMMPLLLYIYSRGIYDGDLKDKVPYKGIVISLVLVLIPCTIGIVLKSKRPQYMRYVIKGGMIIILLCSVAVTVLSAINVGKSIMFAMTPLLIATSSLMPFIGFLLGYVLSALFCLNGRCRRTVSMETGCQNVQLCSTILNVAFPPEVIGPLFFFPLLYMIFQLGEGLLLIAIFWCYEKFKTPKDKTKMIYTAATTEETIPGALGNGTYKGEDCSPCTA

BSEP [3] = target: T2, BSEP (Homo sapiens, UniProt O95342); assay: Efflux assay approach 1: canalicular accumulation in wild-type HEPARG® hepatocytes with or without taurocholate (BSEP competitive inhibitor); type: cell-based; design: both uptake transporters and efflux transporters, such as BSEP, MRP2, Pgp and BCRP; host or cells: differentiated wild-type HepaRG hepatocytes; conditions: for dependence of efflux into BC on BSEP: conclusion in words; for probe fluorescence / accumulation in BC with taurocholate: taurocholate as competitive inhibitor of BSEP, 3 hours at 37° C., FIG. 4 image B, FIG. 5
Description: (§1) After washing with the WME containing 0.1% BSA, the cell cultures are then incubated with WME medium containing 0.1% BSA, with or without the different inhibitors (taurocholate, Verapamil, KO143) at the concentration indicated at the table E2 for 3 hours at 37° C.
Target sequence in this assay (O95342 whole entry): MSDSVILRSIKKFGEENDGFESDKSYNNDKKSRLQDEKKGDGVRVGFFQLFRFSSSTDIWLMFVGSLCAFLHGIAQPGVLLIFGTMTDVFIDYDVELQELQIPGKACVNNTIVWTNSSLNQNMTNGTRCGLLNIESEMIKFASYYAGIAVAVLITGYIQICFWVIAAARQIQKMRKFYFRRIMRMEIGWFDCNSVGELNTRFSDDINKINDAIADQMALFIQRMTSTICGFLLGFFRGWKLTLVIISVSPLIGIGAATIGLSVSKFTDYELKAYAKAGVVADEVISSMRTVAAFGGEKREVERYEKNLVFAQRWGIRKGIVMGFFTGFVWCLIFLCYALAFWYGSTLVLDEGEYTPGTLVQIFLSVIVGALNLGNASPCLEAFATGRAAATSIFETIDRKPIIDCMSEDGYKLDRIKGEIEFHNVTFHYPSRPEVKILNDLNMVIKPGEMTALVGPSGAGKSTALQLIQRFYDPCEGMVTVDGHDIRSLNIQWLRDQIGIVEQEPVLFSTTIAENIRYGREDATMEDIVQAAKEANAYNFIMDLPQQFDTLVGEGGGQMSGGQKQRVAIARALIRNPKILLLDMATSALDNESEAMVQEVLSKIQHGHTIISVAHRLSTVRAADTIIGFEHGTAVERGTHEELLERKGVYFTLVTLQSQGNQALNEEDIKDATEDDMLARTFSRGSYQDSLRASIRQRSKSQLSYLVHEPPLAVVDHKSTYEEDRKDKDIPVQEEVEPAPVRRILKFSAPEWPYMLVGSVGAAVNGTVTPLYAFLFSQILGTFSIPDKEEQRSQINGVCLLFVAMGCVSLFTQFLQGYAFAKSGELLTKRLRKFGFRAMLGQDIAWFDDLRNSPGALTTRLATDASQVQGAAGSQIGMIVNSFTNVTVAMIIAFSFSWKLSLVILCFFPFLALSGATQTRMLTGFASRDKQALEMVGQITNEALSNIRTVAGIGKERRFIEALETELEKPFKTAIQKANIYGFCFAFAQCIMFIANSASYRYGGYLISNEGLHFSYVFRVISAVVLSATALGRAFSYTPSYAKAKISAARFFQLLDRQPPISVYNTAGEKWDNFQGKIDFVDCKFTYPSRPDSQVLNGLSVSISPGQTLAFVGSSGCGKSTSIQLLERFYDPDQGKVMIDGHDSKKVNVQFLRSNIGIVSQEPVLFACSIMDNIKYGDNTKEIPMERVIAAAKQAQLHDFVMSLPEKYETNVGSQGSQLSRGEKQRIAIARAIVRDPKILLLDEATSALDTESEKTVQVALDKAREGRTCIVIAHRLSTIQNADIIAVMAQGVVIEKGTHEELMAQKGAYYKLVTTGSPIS

OATs [4] = tested on: OATs
MRP2 [5] = target: T3, MRP2 (Homo sapiens, UniProt Q92887)
T3 sequence (Q92887 whole entry): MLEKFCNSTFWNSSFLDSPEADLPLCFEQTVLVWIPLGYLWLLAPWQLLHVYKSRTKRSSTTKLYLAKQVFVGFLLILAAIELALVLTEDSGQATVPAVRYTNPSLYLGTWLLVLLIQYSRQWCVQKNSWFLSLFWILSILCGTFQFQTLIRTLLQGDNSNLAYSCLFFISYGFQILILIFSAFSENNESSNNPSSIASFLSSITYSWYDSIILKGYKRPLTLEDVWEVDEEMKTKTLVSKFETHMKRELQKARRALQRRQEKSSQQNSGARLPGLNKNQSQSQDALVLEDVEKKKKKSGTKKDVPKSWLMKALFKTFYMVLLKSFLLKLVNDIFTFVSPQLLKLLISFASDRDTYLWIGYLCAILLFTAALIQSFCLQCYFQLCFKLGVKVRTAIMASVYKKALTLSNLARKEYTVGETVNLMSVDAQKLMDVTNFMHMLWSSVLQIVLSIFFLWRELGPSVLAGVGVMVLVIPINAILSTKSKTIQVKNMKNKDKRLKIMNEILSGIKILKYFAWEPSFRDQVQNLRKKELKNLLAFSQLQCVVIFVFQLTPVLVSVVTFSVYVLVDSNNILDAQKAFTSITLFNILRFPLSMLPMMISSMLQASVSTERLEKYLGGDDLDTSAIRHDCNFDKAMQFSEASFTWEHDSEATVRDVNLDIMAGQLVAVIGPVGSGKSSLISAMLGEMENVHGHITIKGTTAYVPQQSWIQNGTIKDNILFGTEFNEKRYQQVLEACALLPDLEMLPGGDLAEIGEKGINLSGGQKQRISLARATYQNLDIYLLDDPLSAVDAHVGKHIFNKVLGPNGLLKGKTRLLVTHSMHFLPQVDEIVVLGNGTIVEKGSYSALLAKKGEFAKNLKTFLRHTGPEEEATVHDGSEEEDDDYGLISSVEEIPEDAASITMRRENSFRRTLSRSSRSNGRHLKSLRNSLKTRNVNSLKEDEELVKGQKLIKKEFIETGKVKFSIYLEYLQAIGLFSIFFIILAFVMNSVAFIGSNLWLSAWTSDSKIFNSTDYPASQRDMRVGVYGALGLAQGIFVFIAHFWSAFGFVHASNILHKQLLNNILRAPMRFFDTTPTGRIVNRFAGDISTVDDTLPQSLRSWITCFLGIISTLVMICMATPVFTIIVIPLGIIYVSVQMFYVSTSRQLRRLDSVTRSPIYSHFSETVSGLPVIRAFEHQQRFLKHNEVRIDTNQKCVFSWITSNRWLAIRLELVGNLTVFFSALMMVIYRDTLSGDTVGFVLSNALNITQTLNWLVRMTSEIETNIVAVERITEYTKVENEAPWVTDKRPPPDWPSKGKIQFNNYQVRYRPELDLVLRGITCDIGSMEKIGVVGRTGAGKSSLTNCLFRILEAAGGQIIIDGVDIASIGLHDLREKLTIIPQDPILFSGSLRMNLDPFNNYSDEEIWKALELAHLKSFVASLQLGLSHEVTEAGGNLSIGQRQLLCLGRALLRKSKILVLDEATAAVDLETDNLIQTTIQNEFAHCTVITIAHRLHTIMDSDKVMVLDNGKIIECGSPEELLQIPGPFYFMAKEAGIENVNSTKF
Description: (§2) Two HEPARG® cell lines are used as hepatic cell models for in vitro bile acid efflux assay.
(§3) Before the probe incubation assay, both differentiated HEPARG® wild-type and HEPARG® MRP2 KO cell cultures are washed once with Williams' Medium E (WME) with 0.1% BSA and then incubated with 1 to 5 μM of fluorescent probes (54, 55, 15) in WME with 0.1% BSA or 3 μM of CDFDA in WME at 37° C. for 30 min.
(§4) After incubation, the cell cultures are washed 4 times with WME medium containing 0.5% DMSO and 2% FBS.
(§5) The cell cultures are then observed with a fluorescence microscope and the cell images are taken and compared.
(§6) Both the differentiated wild-type HEPARG®™ and MPR2-KO HEPARG® cells are thawed in HEPARG® Thawing/Plating/General Purpose medium (MIL600/ADD670) and cultured in HEPARG® Maintenance/Metabolism Medium (MIL600/ADD620) (according to the user guide of Biopredic International). Fourteen to twenty days after cell seeding and maintenance, the fully differentiated and polarized cell cultures of both the wild-type and MRP2-KO HEPARG® cells are ready and used for the characterization of biological effects of fluorescent probes in term of specific Efflux Transporter-Mediated efflux of probes in the bile canaliculi of HEPARG® hepatocytes.

[6] = tested on: primary human hepatocyte (PHH)
Description: Four batches of primary human hepatocyte (PHH) are used for in vitro uptake assay:
Cryopreserved PHH are thawed in one-step Hepatocyte Thawing/Plating medium (MIL130) and then cells number and viability were evaluated with trypan blue exclusion test prior to cell treatment.
Influx study. Cryopreserved PHH are thawed in one-step Hepatocyte Thawing/Plating medium (MIL130) and then the cell number and viability are evaluated with trypan blue exclusion test prior to cell treatment. The cells were grown in MW96 at a density of 0.2*10^6/well.
Incubation for uptake evaluation. Incubation buffer: HBSS buffer containing 10 mM Herpes and 0.1% BSA, pH 7.4
The active uptake of each probe was tested according to the Test group 1 conditions. The results are presented in the table below as the percentage of active uptake compared to total uptake.

MRP2 [7] = target: T3, MRP2; assay: Efflux assay approach 3: canalicular accumulation in HEPARG® MRP2 KO and wild-type cells; conditions: for dependence of canalicular efflux on ABC transporter MRP2: conclusion from MRP2 KO accumulation profile; for accumulation / fluorescence intensity in the BC of HEPARG® MRP2 KO cells: probes 1 to 5 μM or 3 μM CDFDA, 37° C., 30 min, FIG. 7
Description: as §2, §3, §4, §5, §6

Pgp = target: T4, Pgp (Homo sapiens, UniProt P08183); assay: Efflux assay approach 1: canalicular accumulation in wild-type HEPARG® hepatocytes with or without Verapamil (Pgp inhibitor); type: cell-based; conditions: 3 hours at 37° C., FIG. 4 image D
T4 construct: both uptake transporters and efflux transporters, such as BSEP, MRP2, Pgp and BCRP; host or cells: differentiated wild-type HepaRG hepatocytes
T4 sequence (P08183 whole entry): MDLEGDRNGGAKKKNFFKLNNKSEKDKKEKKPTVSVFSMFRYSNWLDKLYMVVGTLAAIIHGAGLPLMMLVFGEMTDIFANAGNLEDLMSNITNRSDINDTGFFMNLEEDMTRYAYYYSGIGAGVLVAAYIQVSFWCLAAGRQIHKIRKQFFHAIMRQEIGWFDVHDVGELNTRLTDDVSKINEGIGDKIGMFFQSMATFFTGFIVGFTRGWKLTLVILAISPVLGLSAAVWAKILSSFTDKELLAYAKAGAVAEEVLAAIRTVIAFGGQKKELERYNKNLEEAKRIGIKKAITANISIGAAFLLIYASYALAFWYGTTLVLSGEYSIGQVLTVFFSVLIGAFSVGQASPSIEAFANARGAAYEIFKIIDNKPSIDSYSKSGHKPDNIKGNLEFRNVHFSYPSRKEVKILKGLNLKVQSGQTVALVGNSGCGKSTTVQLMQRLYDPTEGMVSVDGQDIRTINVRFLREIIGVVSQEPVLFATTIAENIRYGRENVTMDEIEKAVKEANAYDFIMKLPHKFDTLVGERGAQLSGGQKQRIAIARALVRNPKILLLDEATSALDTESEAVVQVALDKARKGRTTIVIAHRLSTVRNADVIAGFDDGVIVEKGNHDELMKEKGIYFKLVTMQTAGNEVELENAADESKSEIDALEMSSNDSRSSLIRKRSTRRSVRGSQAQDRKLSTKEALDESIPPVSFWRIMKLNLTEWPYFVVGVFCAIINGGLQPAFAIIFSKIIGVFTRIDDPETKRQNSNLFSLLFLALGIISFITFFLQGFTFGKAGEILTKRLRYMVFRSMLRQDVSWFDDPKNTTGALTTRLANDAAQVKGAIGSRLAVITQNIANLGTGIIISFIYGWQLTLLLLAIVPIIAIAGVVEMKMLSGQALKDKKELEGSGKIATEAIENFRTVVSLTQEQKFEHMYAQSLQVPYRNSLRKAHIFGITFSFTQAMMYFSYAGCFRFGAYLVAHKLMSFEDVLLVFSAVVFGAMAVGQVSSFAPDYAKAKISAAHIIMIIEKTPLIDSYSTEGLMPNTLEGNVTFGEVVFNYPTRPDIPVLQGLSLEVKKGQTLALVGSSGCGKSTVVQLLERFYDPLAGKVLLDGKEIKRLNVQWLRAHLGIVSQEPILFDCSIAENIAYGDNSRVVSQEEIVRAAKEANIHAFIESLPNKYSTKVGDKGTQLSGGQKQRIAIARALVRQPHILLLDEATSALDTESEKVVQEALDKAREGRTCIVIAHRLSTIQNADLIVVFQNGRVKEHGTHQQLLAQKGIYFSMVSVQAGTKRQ
Description: as §1

BCRP = target: T5, BCRP (Homo sapiens, UniProt Q9UNQ0); assay: Efflux assay approach 1: canalicular accumulation in wild-type HEPARG® hepatocytes with or without KO143 (BCRP inhibitor); type: cell-based; conditions: 3 hours at 37° C., FIG. 4 image C
T5 construct: both uptake transporters and efflux transporters, such as BSEP, MRP2, Pgp and BCRP; host or cells: differentiated wild-type HepaRG hepatocytes
T5 sequence (Q9UNQ0 1-655): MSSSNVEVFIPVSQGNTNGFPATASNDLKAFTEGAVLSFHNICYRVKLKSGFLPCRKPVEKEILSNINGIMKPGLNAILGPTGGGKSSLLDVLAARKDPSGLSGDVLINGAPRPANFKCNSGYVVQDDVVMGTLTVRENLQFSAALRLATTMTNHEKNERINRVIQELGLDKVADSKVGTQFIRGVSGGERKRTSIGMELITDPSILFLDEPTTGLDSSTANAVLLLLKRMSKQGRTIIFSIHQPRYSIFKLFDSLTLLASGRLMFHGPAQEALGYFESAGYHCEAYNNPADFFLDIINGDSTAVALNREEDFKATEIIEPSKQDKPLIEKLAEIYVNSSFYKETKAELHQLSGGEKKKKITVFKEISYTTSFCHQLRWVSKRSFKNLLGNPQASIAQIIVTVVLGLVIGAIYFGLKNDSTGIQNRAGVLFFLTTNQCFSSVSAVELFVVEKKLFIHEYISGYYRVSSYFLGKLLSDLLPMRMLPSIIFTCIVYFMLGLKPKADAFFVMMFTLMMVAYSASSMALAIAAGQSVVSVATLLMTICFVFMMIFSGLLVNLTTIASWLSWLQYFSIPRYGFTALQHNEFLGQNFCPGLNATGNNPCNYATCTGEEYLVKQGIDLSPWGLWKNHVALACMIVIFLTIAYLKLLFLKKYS
Description: as §1

BSEP [8] = target: T2, BSEP; assay: Efflux assay approach 2: uptake in ABC transporter vesicles (Sf9) in the presence of ATP or AMP; type: in vitro ADME; design: purchased Genomembrane GM3010, GM3030 and GM3050 (reagent kits); host or cells: Sf9 cells; conditions: 10 minutes, FIG. 6
Description: Fluorescent probes were incubated with vesicles at 1 and 10 μM during 10 minutes, while the reference substrates were incubated at the test conditions indicated above. • Approach 3: specificity assessment with HEPARG® MRP2 KO
Transporter assay. Reagent kits for Vesicular Transport Assay from Genomembrane (GM3010, GM3030 and GM3050) were used to determine the specificity of ABC transporters versus tested probes.
The vesicles transfected with BSEP transporter were incubated with the 2 probes 54 and 55 in the presence of ATP or AMP in order to determine the interaction specificity between the probe and the transporter.
Target sequence in this assay (O95342 whole entry, species assumed): as the sequence (O95342 whole entry) above

CC(=O)Nc1ccc(O)cc1 [Acetaminophen]
Theoretical effect: Induced effect on BC (BC): None
Protocol 1 Effects on BC morphology and BA transporters CDFDA ([1]; drug 3 hours at 37° C., then probe CDFDA 3 μM 30 min, FIG. 8A): No effect
Theoretical effect: Efflux transporters interaction (Efflux transporters): None

Tauro-nor-THCA-24-DBD [reference compound]
% of inhibition Indomethacine/Diclofenac (OATs inhibitor) (OATs [2]): 50%
% of inhibition Rifampicine (OATPs inhibitor) (OATPs): 24%
% of inhibition Mpp (OCT inhibitor) (OCT): 26%
% of inhibition Myrcludex (NTCP inhibitor) (NTCP): 81%

CN(C)CCCN1c2ccccc2Sc2ccc(Cl)cc21 [Chlorpromazine]
Theoretical effect: Induced effect on BC (BC): constriction
alteration of bile canaliculi (BC) revealed by fluorescent probe 15 ([1]; listed as CPZ): remarkable constriction of BC; also recorded: detectable constriction of BC
Theoretical effect: Efflux transporters interaction (Efflux transporters): MRP2/BSEP

O=S(=O)(c1cccc2cnccc12)N1CCCNCC1 [Fasudil]
Theoretical effect: Efflux transporters interaction (Efflux transporters): No

COc1ccccc1Oc1c(NS(=O)(=O)c2ccc(C(C)(C)C)cc2)nc(-c2ncccn2)nc1OCCO [Bosentan]
Theoretical effect: Induced effect on BC (BC): dilation
alteration of bile canaliculi (BC) revealed by fluorescent probe 15 [1]: important dilation
Theoretical effect: Efflux transporters interaction (Efflux transporters): MRP2/BSEP

COC(=O)[C@H](CCCCNc1ccc([N+](=O)[O-])c2nonc12)NC(=O)CC[C@@H](C)C1CCC2C3C(CC[C@@]21C)[C@@]1(C)CC[C@@H](O)CC1C[C@@H]3O (stereo partly drawn) [Compound 15, Methyl-N2-((4R)-4-((3R,7S,10S,13R)-3,7-dihydroxy-10,13-dimethylhexadecahydro-1H-cyclopenta[a]phenanthren-17-yl)pentanoyl)-N6-(7-nitrobenzo[c][1,2,5]oxadiazol-4-yl)-L-lysinate]
dependence of efflux into BC on BSEP (BSEP [3]): weakly dependent on BSEP
probe fluorescence / accumulation in BC with taurocholate (BSEP [3]): partial inhibition profile
involvement of OATs in the uptake of the probe (OATs [4]): mainly dependent on OAT family
dependence of canalicular efflux on ABC transporter MRP2 (MRP2 [5]): independent
% Active uptake (Mean value) ([6]; human, 30 min, 5 μM, pH 7.4): 31%
% of inhibition Rifampicine (OATPs inhibitor) (OATPs): 34%
% of inhibition Mpp (OCT inhibitor) (OCT): 11%
% of inhibition Myrcludex (NTCP inhibitor) (NTCP): 16%

COC(=O)C(CCCCNC(=O)CCc1ccc2n1[B-](F)(F)[N+]1=C(C)C=C(C)C1=C2)NC(=O)CCC(C)C1CCC2C3C(O)CC4CC(O)CCC4(C)C3CCC12C [Compound 54, Methyl N6-(3-(5,5-difluoro-7,9-dimethyl-5H-dipyrrolo[1,2-c:2′,1′-f][1,3,2]diazaborinin-3-yl)propanoyl)-N2-((4R)-4-((3R,7S,10S,13R,17R)-3,7-dihydroxy-10,13-dimethylhexadecahydro-1H-cyclopenta[a]phenanthren-17-yl)pentanoyl)-L-lysinate]
dependence of efflux into BC on BSEP (BSEP [3]): substrate of BSEP
probe fluorescence / accumulation in BC with taurocholate (BSEP [3]): significant decrease
accumulation of probe fluorescence in BC of HEPARG® hepatocytes (BSEP [3]; without any inhibitor, FIG. 4 image A): significant accumulation
dependence of canalicular efflux on ABC transporter MRP2 (MRP2 [7]): independent
accumulation / fluorescence intensity in the BC of HEPARG® MRP2 KO cells (MRP2 [7]): stronger fluorescence intensity
BC accumulation with inhibitor of Pgp (Verapamil) versus control cells (Pgp): no visible difference
BC accumulation with inhibitor of BCRP (KO143) versus control cells (BCRP): no visible difference
type of probe uptake (active transport or passive diffusion) [6]: mainly mediated by transporters
uptake in vesicles ATP/AMP (BSEP [8]; whatever probe concentrations (1 and 10 μM)): no difference

COC(=O)CNC(=O)C(CCCCNC(=O)CCc1ccc2n1[B-](F)(F)[N+]1=C(C)C=C(C)C1=C2)NC(=O)CCC(C)C1CCC2C3C(O)CC4CC(O)CCC4(C)C3CCC12C [Compound 55, Methyl-N6-(3-(5,5-difluoro-7,9-dimethyl-5H-dipyrrolo[1,2-c:2′,1′-f][1,3,2]diazaborinin-3-yl)propanoyl)-N2-((4R)-4-((3R,7S,10S,13R,17R)-3,7-dihydroxy-10,13-dimethylhexadecahydro-1H-cyclopenta[a]phenanthren-17-yl)pentanoyl)-L-lysylglycinate]
dependence of canalicular efflux on ABC transporter MRP2 (MRP2 [7]): independent
accumulation / fluorescence intensity in the BC of HEPARG® MRP2 KO cells (MRP2 [7]): stronger fluorescence intensity
BC accumulation with inhibitor of Pgp (Verapamil) versus control cells (Pgp): independent
BC accumulation with inhibitor of BCRP (KO143) versus control cells (BCRP): independent
type of probe uptake (active transport or passive diffusion) [6]: mainly mediated by transporters
uptake inside the membrane vesicles in the presence of ATP compared to AMP (BSEP [8]; probe at 10 μM): significant uptake

Cc1c(C)c2c(c(C)c1O)CCC(C)(COc1ccc(CC3SC(=O)NC3=O)cc1)O2 (centres unmarked) [Troglitazone]
Theoretical effect: Induced effect on BC (BC): constriction
